# Data from ChEMBL document CHEMBL2057086, “3-Bromo-3-deazaneplanocin and 3-bromo-3-deazaaristeromycin: synthesis and antiviral activity” (Bioorg Med Chem Lett, 2012).
# Calls of active or inactive are those of the source. No cut-off for these calls is given here.
# Tests used:
# SARS-CoV = test: Antiviral activity against SARS coronavirus infected in african green monkey Vero cells assessed as reduction of viral replication; assay type: functional, organism-based; settings: Severe acute respiratory syndrome-related coronavirus
# [1] = tested on: Respiratory syncytial virus; test: Antiviral activity against Respiratory syncytial virus infected in […] cells assessed as reduction of viral replication; assay type: functional, organism-based
# Hepatitis C virus = test: Antiviral activity against Hepatitis C virus infected in human AVA5 cells assessed as reduction of viral replication; assay type: functional, organism-based; settings: Hepacivirus hominis
# [2] = Selectivity index, ratio of CC50 for HEL to EC50 Cytomegalovirus
# [3] = Selectivity index, ratio of CC50 for african green monkey Vero cells to EC50 for Measles virus; assay type: toxicity, cell-based; settings: read-out: Ratio CC50/EC50
# Cytomegalovirus = test: Antiviral activity against Cytomegalovirus infected in HEL assessed as reduction of viral replication; assay type: functional, organism-based; settings: Human betaherpesvirus 5
# [4] = Selectivity index, ratio of CC50 for african green monkey Vero cells to EC50 for Yellow fever virus; assay type: toxicity, cell-based; settings: read-out: Ratio CC50/EC50
# Measles morbillivirus = test: Antiviral activity against Measles virus infected in african green monkey Vero cells assessed as reduction of viral replication; assay type: functional, organism-based
# Yellow fever virus = test: Antiviral activity against Yellow fever virus infected in african green monkey Vero cells assessed as reduction of viral replication; assay type: functional, organism-based
# [5] = Selectivity index, ratio of CC50 for african green monkey Vero cells to EC50 for Dengue virus; assay type: toxicity, cell-based; settings: read-out: Selectivity Index
# [6] = Selectivity index, ratio of minimum compound concentration required to cause microscopically detectable alteration of normal cell morphology for human HeLa cells to EC50 for Vaccinia virus; assay type: toxicity, cell-based; settings: read-out: Selectivity Index
# West Nile virus = test: Antiviral activity against West Nile virus infected in african green monkey Vero cells assessed as reduction of viral replication; assay type: functional, organism-based
# [7] = tested on: Venezuelan equine encephalitis virus; test: Antiviral activity against Venezuelan equine encephalitis virus infected in african green monkey Vero cells assessed as reduction of viral replication; assay type: functional, organism-based
# [8] = Selectivity index, ratio of CC50 for african green monkey Vero 76 cells to EC50 for Tacaribe virus; assay type: toxicity, cell-based; settings: read-out: Selectivity Index
# [9] = Selectivity index, ratio of CC50 for african green monkey Vero 76 cells to EC50 for Rift Valley fever virus; assay type: toxicity, cell-based; settings: read-out: Selectivity Index
# [10] = Cytotoxicity against human HeLa assessed as minimum compound concentration required to cause microscopically detectable alteration of normal cell morphology; assay type: cell-based; settings: HeLa cells, read-out: Activity
# [11] = Cytotoxicity against african green monkey Vero cells assessed as reduction of cell viability; assay type: cell-based; settings: chlorocebus sabaeus
# [12] = Cytotoxicity against african green monkey Vero 76 cells assessed as reduction of cell viability; assay type: cell-based; settings: chlorocebus sabaeus
# Vaccinia virus = test: Antiviral activity against Vaccinia virus infected in human HeLa cells assessed as reduction of viral replication; assay type: functional, organism-based; settings: Orthopoxvirus vaccinia
# Dengue virus = test: Antiviral activity against Dengue virus infected in african green monkey Vero cells assessed as reduction of viral replication; assay type: functional, organism-based
# Tacaribe virus = test: Antiviral activity against Tacaribe virus infected in african green monkey Vero 76 cells assessed as reduction of viral replication; assay type: functional, organism-based; settings: Mammarenavirus tacaribeense
# Rift Valley fever virus = test: Antiviral activity against Rift Valley fever virus infected in african green monkey Vero 76 cells assessed as reduction of viral replication; assay type: functional, organism-based
# [13] = Selectivity index, ratio of CC50 for MDCK cells to EC50 for Influenza B virus; assay type: toxicity, cell-based; settings: dog, read-out: Ratio CC50/EC50
# [14] = Selectivity index, ratio of CC50 for MDCK cells to EC50 for Influenza A virus H5N1; assay type: toxicity, cell-based; settings: dog, read-out: Ratio CC50/EC50
# [15] = Cytotoxicity against MDCK cells assessed as reduction of cell viability; assay type: cell-based, Canis lupus familiaris; settings: dog
# Influenza B virus = test: Antiviral activity against Influenza B virus infected in MDCK cells assessed as reduction of viral replication; assay type: functional, organism-based
# Influenza A virus [16] = test: Antiviral activity against Influenza A virus H5N1 infected in MDCK cells assessed as reduction of viral replication; assay type: functional, organism-based
# Influenza A virus [17] = test: Antiviral activity against Influenza A virus H3N2 infected in MDCK cells assessed as reduction of viral replication; assay type: functional, organism-based
# Influenza A virus [18] = test: Antiviral activity against Influenza A virus H1N1 infected in MDCK cells assessed as reduction of viral replication; assay type: functional, organism-based
# [19] = Cytotoxicity against HEL assessed as reduction of cell viability; assay type: cell-based; settings: human, HEL cells
# [20] = tested on: Mammalian orthoreovirus 1; test: Antiviral activity against Reovirus 1 infected in african green monkey Vero cells assessed as reduction of viral replication; assay type: functional, organism-based
# Coxsackievirus B4 = test: Antiviral activity against Coxsackievirus B4 virus infected in african green monkey Vero cells assessed as reduction of viral replication; assay type: functional, organism-based
# Sindbis virus = test: Antiviral activity against Sindbis virus infected in african green monkey Vero cells assessed as reduction of viral replication; assay type: functional, organism-based
# Feline coronavirus = test: Antiviral activity against Feline coronavirus assessed as reduction of viral replication; assay type: functional, organism-based
# Human alphaherpesvirus 2 = test: Antiviral activity against HSV-2 infected in HEL assessed as reduction of viral replication; assay type: functional, organism-based
# Human alphaherpesvirus 1 = test: Antiviral activity against HSV-1 infected in HEL assessed as reduction of viral replication; assay type: functional, organism-based
# [21] = Selectivity index, ratio of CC50 for african green monkey Vero cells to EC50 for Pichinde virus; assay type: toxicity, cell-based; settings: read-out: Selectivity Index
# [22] = Selectivity index, ratio of CC50 for african green monkey Vero cells to EC50 for Junin virus; assay type: toxicity, cell-based; settings: read-out: Selectivity Index
# [23] = Selectivity index, ratio of CC50 for human Akata cells to EC50 for Epstein-Barr virus; assay type: toxicity, cell-based; settings: read-out: Selectivity Index
# [24] = Selectivity index, ratio of CC50 for cat CRFK cells to EC50 for Feline herpesvirus; assay type: toxicity, cell-based; settings: read-out: Selectivity Index
# Cowpox virus = test: Antiviral activity against Cowpox virus infected in HFF cells assessed as reduction of viral replication; assay type: functional, organism-based
# Hepatitis B virus = test: Antiviral activity against HBV infected in human HepG2(2.2.15) cells assessed as reduction of viral replication; assay type: functional, organism-based
# [25] = Selectivity index, ratio of CC50 for african green monkey Vero 76 cells to EC50 for Punta Toro virus; assay type: toxicity, cell-based; settings: read-out: Selectivity Index
# [26] = Cytotoxicity against cat CRFK cells assessed as reduction of cell viability; assay type: cell-based, Felis catus
# [27] = Cytotoxicity against african green monkey Vero cells assessed as minimum compound concentration required to cause microscopically detectable alteration of normal cell morphology; assay type: cell-based; settings: chlorocebus sabaeus, read-out: Activity
# [28] = Cytotoxicity against human Akata cells assessed as reduction of cell viability; assay type: cell-based
# Felid alphaherpesvirus 1 = test: Antiviral activity against Feline herpesvirus infected in cat CRFK cells assessed as reduction of viral replication; assay type: functional, organism-based; settings: Felid alphaherpesvirus 1, CRFK
# Human respirovirus 3 = test: Antiviral activity against Parainfluenza-3 virus infected in african green monkey Vero cells assessed as reduction of viral replication; assay type: functional, organism-based; settings: Human respirovirus 3, Vero
# Human gammaherpesvirus 4 = test: Antiviral activity against Epstein-Barr virus infected in human Akata cells assessed as reduction of viral replication; assay type: functional, organism-based; settings: human gammaherpesvirus 4, Akata
# [29] = tested on: Vesicular stomatitis virus; test: Antiviral activity against Vesicular stomatitis virus infected in human HeLa cells assessed as reduction of viral replication; assay type: functional, organism-based
# Junin virus = test: Antiviral activity against Junin virus infected in african green monkey Vero cells assessed as reduction of viral replication; assay type: functional, organism-based; settings: Mammarenavirus juninense
# Pichinde virus = test: Antiviral activity against Pichinde virus infected in african green monkey Vero cells assessed as reduction of viral replication; assay type: functional, organism-based
# Punta Toro virus = test: Antiviral activity against Punta Toro virus infected in african green monkey Vero 76 cells assessed as reduction of viral replication; assay type: functional, organism-based
# [30] = Selectivity index, ratio of CC50 for MDCK cells to EC50 for Influenza A virus H3N2; assay type: toxicity, cell-based; settings: dog, read-out: Ratio CC50/EC50
# [31] = Selectivity index, ratio of CC50 for MDCK cells to EC50 for Influenza A virus H1N1; assay type: toxicity, cell-based; settings: dog, read-out: Ratio CC50/EC50
compound,measurement,setting,value
Nc1ncc(Br)c2c1ncn2[C@@H]1C[C@H](CO)[C@@H](O)[C@H]1O,Activity,SARS-CoV,inactive
same,Activity,[1],inactive
same,Activity,Hepatitis C virus,inactive
same,Ratio CC50/EC50,[2],23
same,selectivity ratio,[3],4.3
same,EC50,Cytomegalovirus,3500 nM
same,selectivity ratio,[4],9.7
same,EC50,Measles morbillivirus,16000 nM
same,EC50,Yellow fever virus,19000 nM
same,selectivity ratio,[5],2
same,selectivity ratio,[6],> 1.3
same,Activity,West Nile virus,inactive
same,Activity,[7],inactive
same,selectivity ratio,[8],7.9
same,selectivity ratio,[9],> 5
same,MCC,[10],> 300 µM
same,CC50,[11],70000 nM
same,CC50,[12],> 79000 nM
same,EC50,Vaccinia virus,230000 nM
same,EC50,Dengue virus,93000 nM
same,EC50,Tacaribe virus,9900 nM
same,EC50,Rift Valley fever virus,58300 nM
same,selectivity ratio,[13],> 340
same,selectivity ratio,[14],> 260
same,CC50,[15],> 290000 nM
same,EC50,Influenza B virus,840 nM
same,EC50,Influenza A virus [16],1140 nM
same,EC50,Influenza A virus [17],> 290000 nM
same,EC50,Influenza A virus [18],> 290000 nM
same,CC50,[19],80000 nM
Nc1ncc(Br)c2c1ncn2[C@@H]1C=C(CO)[C@@H](O)[C@H]1O,Activity,[20],inactive
same,Activity,Coxsackievirus B4,inactive
same,Activity,Sindbis virus,inactive
same,Activity,Feline coronavirus,inactive
same,Activity,Human alphaherpesvirus 2,inactive
same,Activity,Human alphaherpesvirus 1,inactive
same,selectivity ratio,[21],24
same,selectivity ratio,[22],160
same,selectivity ratio,[5],57
same,selectivity ratio,[23],< 4.3
same,selectivity ratio,[24],470
same,Activity,West Nile virus,inactive
same,Activity,Cowpox virus,inactive
same,Activity,Hepatitis B virus,inactive
same,Activity,[7],inactive
same,selectivity ratio,[8],> 2000
same,selectivity ratio,[25],140
same,selectivity ratio,[9],250
same,CC50,[26],94000 nM
same,MCC,[27],> 100 µM
same,CC50,[28],130 nM
same,MCC,[10],≥ 100 µM
same,CC50,[11],15200 nM
same,CC50,[12],23200 nM
same,EC50,Felid alphaherpesvirus 1,200 nM
same,EC50,Human respirovirus 3,500 nM
same,EC50,Human gammaherpesvirus 4,> 30 nM
same,EC50,[29],400 nM
same,EC50,Vaccinia virus,500 nM
same,EC50,Dengue virus,2900 nM
same,EC50,Junin virus,94 nM
same,EC50,Pichinde virus,1200 nM
same,EC50,Tacaribe virus,< 94 nM
same,EC50,Punta Toro virus,250 nM
same,EC50,Rift Valley fever virus,< 94 nM
same,selectivity ratio,[13],< 7
same,selectivity ratio,[14],> 310
same,selectivity ratio,[30],> 190
same,selectivity ratio,[31],> 2340
same,CC50,[15],1100 nM
same,EC50,Influenza B virus,> 160 nM
same,EC50,Influenza A virus [16],940 nM
same,EC50,Influenza A virus [17],1550 nM
same,EC50,Influenza A virus [18],< 94 nM
